Laboratory results as given in patent US20230123334A1, “AMINO LIPID COMPOUND, PREPARATION METHOD THEREFOR, AND APPLICATION THEREOF” (SHENZHEN SHENXIN BIOTECHNOLOGY CO., LTD., priority 2020, published 2023).

What was measured:
HEK293 cells [1] = assay: Preliminary screening as mRNA vectors, EGFP mRNA transfection of HEK293 cells; type: cell-based; conditions: HEK293 cells, 96-well plates, EGFP mRNA 50 ng per well; percentage of GFP fluorescent cells relative to total number of cells (Hoechst)
How it was run: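 Each well of HEK293 cells received 50 ng of EGFP mRNA. Efficiency was expressed as percent GFP-expressing cells over Hoechst-defined total cell number.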

HEK293 cells [2] = assay: Preliminary screening as DNA vectors, GFP transfection of HEK293 cells; type: cell-based; conditions: HEK293 cells; lipid/DOPE liposome with 75 ng plasmid DNA (psin-EGFP-IRES-Puro); number of cells expressing GFP divided by total number of nuclei (Hoechst)
How it was run: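 Lipid + DOPE liposomes (NaOAc, pH 5.6) complexed w/ 75 ng psin-EGFP-IRES-Puro, 30 min RT; added to 3-5×10^4 HEK293/well, 37° C. Hoechst 0.2 μg/mL at 20-24 h, imaged after further 20-24 h. Efficiency = GFP+ cells / total nuclei.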

Row | SMILES | Absolute mRNA transfection efficiency in HEK293 cells (HEK293 cells [1]) | Absolute DNA transfection efficiency in HEK293 cells (HEK293 cells [2])
1 | CCCCCCCCCCCCCCCSc1nc(NCCCN2CCN(C)CC2)nc(SCCCCCCCC)n1 [Compound S8S15D9] | 22.0% | 13.9%
2 | CCCCCCCCCCCCCCCCNc1nc(NCCCCCCCC)nc(NCCN(C)C)n1 [Compound N8N16D1] | 4.6% | 3.8%
3 | CCCCCCCCCNc1nc(NCCCCCCC)nc(NCCN2CCCC2)n1 [Compound N7N9D3] | 0.1% | 0.0%
4 | CCCCCCCCCCCCCCCSc1nc(NCCN(CC)CC)nc(SCCCCCCCCCCCCCC)n1 [Compound S14S15D7] | 0.4% | 0.6%
5 | CCCCCCCCCNc1nc(NCCCCCCCCC)nc(NCCCN2CCOCC2)n1 [Compound N9N9D8] | 0.6% | 0.0%
6 | CCCCCCCCCCCCCCCCNc1nc(NCCCCCC)nc(NCCN2CCN(C)CC2)n1 [Compound N6N16D5] | 0.1% | 0.0%
7 | CCCCCCCCCCCCCCCCCCNc1nc(NCCCCCCCCC)nc(NCCN(C)C)n1 [Compound N9N18D1] | 5.1% | 4.0%
8 | CCCCCCCCCCCCNc1nc(NCCCCCCCCCCCC)nc(NCCCN2CCN(C)CC2)n1 [Compound N12N12D9] | 1.5% | 0.0%
9 | CCCCCCCCCCCCCCCCNc1nc(NCCCCCCCCC)nc(NCCN2CCCCC2)n1 [Compound N9N16D4] | 4.5% | 0.8%
10 | CCCCCCCCCCCCCCCNc1nc(NCCN2CCCC2)nc(N(CCCCCCCCCCCC)CCCCCCCCCCCC)n1 [N15^2N12D3] | 0.0% | 2.4%
11 | CCCCCCCCCCCCCCSc1nc(NCCN(CC)CC)nc(SCCCCCCCC)n1 [Compound S8S14D7] | 1.3% | 7.5%
12 | CCCCCCCCCCCCCCCCCCSc1nc(NCCN(C)C)nc(SCCCCCCCCCCCCCCC)n1 [Compound S15S18D1] | 0.0% | 0.0%
13 | CCCCCCCCCCCSc1nc(NCCN2CCCC2)nc(SCCCCCCCCCCC)n1 [Compound S11S11D3] | 3.6% | 6.5%
14 | CCCCCCCCCCCCCCCCNc1nc(NCCCN2CCOCC2)nc(N(CCCCCCCCCCCC)CCCCCCCCCCCC)n1 [N16^2N12D8] | 4.3% | 0.4%
15 | CCCCCCCCCCCCCCCCCCNc1nc(NCCCCCCC)nc(NCCN2CCN(C)CC2)n1 [Compound N7N18D5] | 0.1% | 0.7%
16 | CCCCCCCCCCCCCCCCCCNc1nc(NCC2CCN(C)CC2)nc(N(CCCCCCCCCCCC)CCCCCCCCCCCC)n1 [N18^2N12D10] | 2.2% | 0.7%
17 | CCCCCCCCCCCCCNc1nc(NCCCCCCCC)nc(NCCCN2CCN(C)CC2)n1 [Compound N8N13D9] | 0.0% | 1.0%
18 | CCCCCCCCCCCCNc1nc(NCCCCCCCCCCCC)nc(NCCN2CCCCC2)n1 [Compound N12N12D4] | 2.2% | 0.4%
19 | CCCCCCCCCCCCCCCCSc1nc(NCCN(CC)CC)nc(SCCCCCCCCCCC)n1 [Compound S11S16D7] | 0.5% | 2.2%

Row | SMILES | Absolute mRNA transfection efficiency in HEK293 cells (HEK293 cells [1]) | Absolute DNA transfection efficiency in HEK293 cells (HEK293 cells [2])
20 | CCCCCCCCCCSc1nc(NCCN2CCOCC2)nc(SCCCCCCCCCC)n1 [Compound S10S10D2] | 0.4% | 4.0%
21 | CCCCCCCCCCCCCCCCSc1nc(NCCN2CCN(C)CC2)nc(SCCCCCCCCCCC)n1 [Compound S11S16D5] | 5.1% | 4.9%
22 | CCCCCCCCCCSc1nc(NCCN(CC)CC)nc(SCCCCCCCCCC)n1 [Compound S10S10D7] | 2.0% | 7.2%
23 | CCCCCCCCCCCCCCCCSc1nc(NCCN2CCN(C)CC2)nc(SCCCCCCCCCCCCCC)n1 [Compound S14S16D5] | 0.2% | 0.1%
24 | CCCCCCCCCCCCCCCNc1nc(NCCCCCCCCC)nc(NCCN2CCN(C)CC2)n1 [Compound N9N15D5] | 1.8% | 0.2%
25 | CCCCCCCCCNc1nc(NCCCCCC)nc(NCCN(CC)CC)n1 [Compound N6N9D7] | 0.0% | 0.0%
26 | CCCCCCCCCCCCCNc1nc(NCCCCCCCCCCC)nc(NCCN2CCOCC2)n1 [Compound N11N13D2] | 0.1% | 0.0%
27 | CCCCCCCCCCCCCCSc1nc(NCCN(CC)CC)nc(SCCCCCCCCCCCCCC)n1 [Compound S14S14D7] | 2.8% | 2.3%
28 | CCCCCCCCCCCCCCCNc1nc(NCCCCCCCC)nc(NCCCN2CCN(C)CC2)n1 [Compound N8N15D9] | 0.1% | 0.0%
29 | CCCCCCCCCCCCCNc1nc(NCCCCCCC)nc(NCCN2CCCCC2)n1 [Compound N7N13D4] | 0.3% | 0.0%
30 | CCCCCCCCCCSc1nc(NCCCN2CCOCC2)nc(SCCCCCCCCC)n1 [Compound S9S10D8] | 9.8% | 22.5%
31 | CCCCCCCCCCCCCCSc1nc(NCCN2CCCC2)nc(SCCCCCCCCCCCCCC)n1 [Compound S14S14D3] | 0.1% | 0.2%
32 | CCCCCCCCCCCNc1nc(NCCCCCCCCCCC)nc(NCCCN(C)C)n1 [Compound N11N11D6] | 1.1% | 0.7%
33 | CCCCCCCCCCCCCCCNc1nc(NCCCCCCC)nc(NCCN2CCOCC2)n1 [Compound N7N15D2] | 0.1% | 0.0%
34 | CCCCCCCCNc1nc(NCCCCCC)nc(NCCCN2CCN(C)CC2)n1 [Compound N6N8D9] | 0.0% | 0.0%
35 | CCCCCCCCCCCCCNc1nc(NCCCCCC)nc(NCCN2CCOCC2)n1 [Compound N6N13D2] | 0.0% | 0.0%
36 | CCCCCCCCCCCCCCCCSc1nc(NCCN(CC)CC)nc(SCCCCCCCC)n1 [Compound S8S16D7] | 0.5% | 11.8%
37 | CCCCCCCCCCCCCCCCNc1nc(NCCCCCCCC)nc(NCCCN2CCOCC2)n1 [Compound N8N16D8] | 0.2% | 2.3%
